Test results: PMC9317443 (Viruses, 2022)
Read-outs that look alike come from different tables or passages of the source.

Key:
[1] = MTT cytotoxicity / cell viability in CHIKV replicon cells; conditions: hamster, BHK-21-GLuc-nsP-CHIKV-99659 cells (CHIKV replicon cells)
[2] = tested on: CHIKV replicon; assay: CHIKV replicon-based assay (GLuc activity in BHK-21-GLuc-nsP-CHIKV-99659 cells); conditions: for inhibition at 10 µM: read-out: GLuc Inhibition; for EC50: read-out: EC50 (concentration required to inhibit 50% of the GLuc activity), 48 h; for SI (CC50/EC50): replicon-based assay
[3] = tested on: CHIKV-nanoluc; assay: Viral infection assay with CHIKV-nanoluc in BHK-21 cells; format: cell-based, Chikungunya virus; conditions: MOI 0.1, 16 h.p.i., read-out: EC50 (CHIKV-nanoluc replication)
[4] = tested on: BHK-21 cells; assay: Cell viability in the viral infection assay; format: cell-based
[5] = tested on: BHK-21-GLuc-nsP-CHIKV-99659 cells; assay: MTT cytotoxicity / cell viability in CHIKV replicon cells; conditions: CHIKV replicon cells, 48 h, MTT assay; for CC50: read-out: CC50 (50% cytotoxicity)
[6] = Cell viability in the viral infection assay; format: cell-based; conditions: hamster, BHK-21 cells infected with CHIKV-nanoluc
[7] = cited from earlier work
[8] = tested on: replication-transcription complex (RTC); conditions: cited from earlier work
[9] = CHIKV replicon cells, GLuc signal from supernatant

Question: Which results are given for Clc1ccccc1C(c1ccccc1)(c1ccccc1)n1ccnc1 [Clotrimazole]?
Answer: viability at 10 µM [1]: 70.2%; inhibition at 10 µM ([2]; Chikungunya virus): 70.7%

Question: For Clc1ccc(COC(Cn2ccnc2)c2ccc(Cl)cc2Cl)cc1 (stereo not shown) [Econazole], which viability at 10 µM [1] is on record?
Answer: The viability at 10 µM was 81.8%.

Question: And the inhibition at 10 µM ([2]; Chikungunya virus)?
Answer: The inhibition at 10 µM was 43.8%.

Question: What does the source list for OC(Cn1cncn1)(Cn1cncn1)c1ccc(F)cc1F [Fluconazole]?
Answer: viability at 10 µM [1]: 94.3%; inhibition at 10 µM ([2]; Chikungunya virus): 0%

Question: Which results are given for O=C(N[C@@H]1CCCc2c1[nH]c1ccc(Cl)cc21)c1ccccn1 [GSK-983]?
Answer: EC50 [3]: 13.8 ± 3.3 µM; CC50 [4]: > 100 µM; CC50 (50% cytotoxicity) [5]: moderate toxicities; CC50 [5]: 10 ± 0.07 µM; EC50 [2, 9]: 0.33 ± 0.2 µM; SI (CC50/EC50) [2]: 30

Question: With C[C@@H](c1nc(-c2ccc(C#N)cc2)cs1)[C@](O)(Cn1cncn1)c1cc(F)ccc1F [Isavuconazole] as the compound, how does the viability at 10 µM [1] read?
Answer: Its viability at 10 µM is 100%.

Question: What about the inhibition at 10 µM ([2]; Chikungunya virus) of the same compound?
Answer: The inhibition at 10 µM was 28.6%.

Question: Which results are given for CCC(C)n1ncn(-c2ccc(N3CCN(c4ccc(OCC5COC(Cn6cncn6)(c6ccc(Cl)cc6Cl)O5)cc4)CC3)cc2)c1=O (stereo not shown) [Itraconazole, itraconazole]?
Answer: EC50 ([3]; Chikungunya virus): 0.34 ± 0.02 µM; CC50 at 16 h [6]: > 100 µM; CC50 at 48 h [1]: > 100 µM; EC50 ([2]; Chikungunya virus): 0.32 ± 0.2 µM; SI (CC50/EC50) [2]: > 312

Question: What does the source list for CC(=O)N1CCN(c2ccc(OCC3COC(Cn4ccnc4)(c4ccc(Cl)cc4Cl)O3)cc2)CC1 (stereo not shown) [Ketoconazole]?
Answer: viability at 10 µM [1]: 100%; inhibition at 10 µM ([2]; Chikungunya virus): 0%

Question: With C[C@H](C(N)=O)N1CCCC[C@@H]1c1ccc(OCc2cccc(F)c2)cc1 [MMV676270] as the compound, how does the EC50 [3] read?
Answer: The EC50 was 18.4 ± 5 µM.

Question: And the CC50 [4]?
Answer: Its CC50 is 59.5 µM.

Question: What about the “CC50 (50% cytotoxicity)” value [5] of the same compound?
Answer: The value was “moderate toxicities”.

Question: What about the CC50 [5] of the same compound?
Answer: Its CC50 is 52 ± 20 µM.

Question: What about the EC50 [2, 9] of the same compound?
Answer: The EC50 was 5.2 ± 1 µM.

Question: What about the “SI (CC50/EC50)” value [2] of the same compound?
Answer: The value was 10.

Question: With Clc1ccc(COC(Cn2ccnc2)c2ccc(Cl)cc2Cl)c(Cl)c1 (stereo not shown) [Miconazole] as the compound, how does the viability at 10 µM [1] read?
Answer: Its viability at 10 µM is 100%.

Question: And the inhibition at 10 µM ([2]; Chikungunya virus)?
Answer: The inhibition at 10 µM was 27.8%.

Question: Which “no toxic effects up to concentration” value [7] does the source give for CC[C@@H]([C@H](C)O)n1ncn(-c2ccc(N3CCN(c4ccc(OC[C@@H]5CO[C@@](Cn6cncn6)(c6ccc(F)cc6F)C5)cc4)CC3)cc2)c1=O [Posaconazole] here?
Answer: The value was > 100 µM.

Question: And the viability at 10 µM [1]?
Answer: The viability at 10 µM was 100%.

Question: And the inhibition at 10 µM ([2]; Chikungunya virus)?
Answer: The inhibition at 10 µM was 11.8%.

Question: Which results are given for C[C@@H](c1nc(-c2ccc(C#N)cc2)cs1)[C@](O)(Cn1cncn1)c1ccc(F)cc1F [Ravuconazole]?
Answer: viability at 10 µM [1]: 100%; inhibition at 10 µM ([2]; Chikungunya virus): 25.4%

Question: Which results are given for CC[C@@]1(O)C(=O)OCc2c1cc1n(c2=O)Cc2cc3c([N+](=O)[O-])cccc3nc2-1 [Rubitecan, rubitecan]?
Answer: EC50 ([3]; Chikungunya virus): 3.6 ± 0.8 µM; CC50 at 16 h [6]: > 100 µM; CC50 at 48 h [1]: > 100 µM; EC50 ([2]; Chikungunya virus): 0.14 ± 0.03 µM; SI (CC50/EC50) [2]: > 714

Question: With Clc1ccc(C(Cn2ccnc2)OCc2ccsc2Cl)c(Cl)c1 (stereo not shown) [Tioconazole] as the compound, how does the viability at 10 µM [1] read?
Answer: The viability at 10 µM was 68.4%.

Question: What about the inhibition at 10 µM ([2]; Chikungunya virus) of the same compound?
Answer: The inhibition at 10 µM was 54.8%.

Question: Which results are given for C[C@@H](c1ncncc1F)[C@](O)(Cn1cncn1)c1ccc(F)cc1F [Voriconazole]?
Answer: viability at 10 µM [1]: 91.8%; inhibition at 10 µM ([2]; Chikungunya virus): 13.9%

Question: Which EC50 [8] does the source give for Cc1ccc(C(=O)Nc2ccc(S(=O)(=O)O)c3cc(S(=O)(=O)O)cc(S(=O)(=O)O)c23)cc1NC(=O)c1cccc(NC(=O)Nc2cccc(C(=O)Nc3cc(C(=O)Nc4ccc(S(=O)(=O)O)c5cc(S(=O)(=O)O)cc(S(=O)(=O)O)c45)ccc3C)c2)c1 [suramin] here?
Answer: Its EC50 is 6.7 µM.

Question: What about the CC50 at 48 h [1] of the same compound?
Answer: Its CC50 at 48 h is > 50 µM.

Question: And the EC50 ([2]; Chikungunya virus)?
Answer: Its EC50 is 3.2 ± 0.3 µM.
